Test results: BindingDB's records for PubMed 1346637 (Mayo Clinic, 1992)

Assays:
[1] = biological target: T1, Muscarinic acetylcholine receptor M5 (Homo sapiens, UniProt P08912)
T1 sequence (P08912 whole entry): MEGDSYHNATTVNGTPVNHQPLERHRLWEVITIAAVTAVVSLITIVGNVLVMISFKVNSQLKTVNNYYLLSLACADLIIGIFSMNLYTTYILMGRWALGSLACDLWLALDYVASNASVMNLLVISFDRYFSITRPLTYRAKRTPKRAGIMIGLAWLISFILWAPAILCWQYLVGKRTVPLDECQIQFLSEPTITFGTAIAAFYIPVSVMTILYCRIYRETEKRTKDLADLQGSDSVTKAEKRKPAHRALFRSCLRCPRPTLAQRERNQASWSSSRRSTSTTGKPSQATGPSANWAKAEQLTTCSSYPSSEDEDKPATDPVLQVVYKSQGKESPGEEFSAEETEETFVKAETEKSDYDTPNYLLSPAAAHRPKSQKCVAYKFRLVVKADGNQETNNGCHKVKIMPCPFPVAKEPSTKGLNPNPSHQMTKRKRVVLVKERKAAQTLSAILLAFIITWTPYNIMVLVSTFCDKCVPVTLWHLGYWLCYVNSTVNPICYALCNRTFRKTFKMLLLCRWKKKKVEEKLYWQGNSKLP

[2] = biological target: T2, Muscarinic acetylcholine receptor M2 (Homo sapiens, UniProt P08172)
T2 sequence (P08172 whole entry): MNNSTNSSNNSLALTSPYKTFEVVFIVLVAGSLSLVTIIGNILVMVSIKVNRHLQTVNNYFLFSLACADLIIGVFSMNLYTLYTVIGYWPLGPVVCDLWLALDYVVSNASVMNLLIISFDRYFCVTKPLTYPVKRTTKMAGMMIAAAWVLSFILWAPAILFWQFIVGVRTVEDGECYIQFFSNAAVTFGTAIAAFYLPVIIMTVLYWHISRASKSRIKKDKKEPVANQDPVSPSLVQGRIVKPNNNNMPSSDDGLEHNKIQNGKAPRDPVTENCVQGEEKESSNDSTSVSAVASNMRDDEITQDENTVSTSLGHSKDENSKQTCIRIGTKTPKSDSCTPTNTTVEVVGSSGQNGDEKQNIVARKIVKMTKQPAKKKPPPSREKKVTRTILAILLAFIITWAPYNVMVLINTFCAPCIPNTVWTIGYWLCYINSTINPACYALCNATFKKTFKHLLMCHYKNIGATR

[3] = biological target: T3, Muscarinic acetylcholine receptor M4 (Homo sapiens, UniProt P08173)
T3 sequence (P08173 whole entry): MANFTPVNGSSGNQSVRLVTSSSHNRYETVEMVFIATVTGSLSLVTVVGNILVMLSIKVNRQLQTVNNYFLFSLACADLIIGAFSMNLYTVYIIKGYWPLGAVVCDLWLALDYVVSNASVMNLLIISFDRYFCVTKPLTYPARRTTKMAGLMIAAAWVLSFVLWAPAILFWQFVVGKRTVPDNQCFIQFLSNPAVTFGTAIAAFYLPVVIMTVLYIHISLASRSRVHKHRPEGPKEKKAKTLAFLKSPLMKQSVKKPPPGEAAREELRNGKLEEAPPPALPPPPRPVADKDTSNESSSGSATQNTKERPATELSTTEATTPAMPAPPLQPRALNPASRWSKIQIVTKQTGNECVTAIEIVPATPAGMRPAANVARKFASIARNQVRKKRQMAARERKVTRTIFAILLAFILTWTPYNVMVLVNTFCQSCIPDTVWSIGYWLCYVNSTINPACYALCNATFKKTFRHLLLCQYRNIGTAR

SMILES: CN1CCN(C2=Nc3cc(F)ccc3Cc3ccccc32)CC1
- Ki [1]: 17 nM
- Ki [2]: 71 nM
- Ki [3]: 14 nM

SMILES: CN(C)CC/C=C1\c2ccccc2Sc2ccc(Cl)cc21
- Ki [1]: 25 nM
- Ki [3]: 18 nM

SMILES: CN1CCCCC1CCN1c2ccccc2Sc2ccc([S+](C)[O-])cc21 (centres undefined)
- Ki [1]: 60 nM
- Ki [2]: 15 nM
- Ki [3]: 19 nM

SMILES: OC(CCN1CCCCC1)(c1ccccc1)C1CC2C=CC1C2 (centres undefined) [1-(bicyclo[2.2.1]hept-5-en-2-yl)-1-phenyl-3-(piperidin-1-yl)propan-1-ol]
- Ki [1]: 6.3 nM
- Ki [3]: 2.4 nM

SMILES: OC(CCN1CCCC1)(c1ccccc1)C1CCCCC1 (centres undefined) [1-Cyclohexyl-1-phenyl-3-pyrrolidin-1-yl-propan-1-ol]
- Ki [1]: 24 nM
- Ki [3]: 7 nM

SMILES: CN(C)CCOC1=Cc2ccccc2Sc2ccc(Cl)cc21 [2-Chloro-11-(2-(dimethylamino)ethoxy)dibenzo(b,f)thiepin]
- Ki [1]: 260 nM
- Ki [3]: 77 nM

SMILES: CN1CCN(C2=Nc3ccccc3Oc3ccc(Cl)cc32)CC1 [13-chloro-10-(4-methylpiperazin-1-yl)-2-oxa-9-azatricyclo[9.4.0.0^{3,8}]pentadeca-1(11),3,5,7,9,12,14-heptaene]
- Ki [1]: 241 nM
- Ki [3]: 300 nM

SMILES: O=C(CCCN1CCC(O)(c2ccc(Br)cc2)CC1)c1ccc(F)cc1 [BROMPERIDOL]
- Ki [1]: 4800 nM
- Ki [2]: 1800 nM
- Ki [3]: 1700 nM

SMILES: CC1CCN(CCCC(=O)c2ccc(F)cc2)CC1 [CAS_3575-80-2]
- Ki [1]: > 10000 nM
- Ki [2]: 2400 nM
- Ki [3]: 4400 nM

SMILES: CN1CCN(C2=Cc3cc(Cl)ccc3C(=CC#N)c3ccccc32)CC1 [CAS_79781-95-6]
- Ki [1]: 1100 nM
- Ki [2]: 470 nM
- Ki [3]: 1000 nM

SMILES: CN1CCN(CC/C=C2/c3ccccc3Sc3ccc(S(=O)(=O)N(C)C)cc32)CC1 [MLS000028463]
- Ki [1]: 4310 nM
- Ki [2]: 2100 nM
- Ki [3]: 1540 nM

SMILES: CN1CCN(C2=Nc3cscc3C(=CC#N)c3cscc32)CC1 [NSC_3086153]
- Ki [1]: 660 nM
- Ki [2]: 62 nM
- Ki [3]: 430 nM

SMILES: O=C1CC2(CCCC2)CC(=O)N1CCCCN1CCN(c2nsc3ccccc23)CC1 [TIOSPERONE]
- Ki [1]: 3900 nM
- Ki [2]: 180 nM
- Ki [3]: 480 nM
